# Assays:
# Hep3B [1] = assay: Cell viability assay (WST-1), Hep3B; assay type: cell-based; details: 24 h
# Sk-Hep1 = assay: Cell viability assay (WST-1), Sk-Hep1; assay type: cell-based
# [2] = Cell viability assay (WST-1), THLE-3; assay type: cell-based; details: human, thle-3 cells, THLE-3, 30 μM, read-out: survival rate of the cells
# THLE-3 = assay: Cell viability assay (WST-1), THLE-3; assay type: cell-based; details: THLE-3, 5-30 μM, 24 h
# Hep3B [3] = assay: DAPI assay, nuclear condensation / apoptosis induction; assay type: cell-based; details: 20, 25 μM
# Hep3B [4] = assay: Cell cycle analysis by flow cytometer (propidium iodide); assay type: cell-based; details: for sub-G1 cell population: 24 h (untreated 1.35%)
# Hep3B [5] = assay: Western blot of cell cycle-related proteins; assay type: cell-based; details: 15, 20, 25 μM, 24 h
# Hep3B [6] = assay: Immunofluorescence, p21Waf1/Cip1; assay type: cell-based; details: 15 μM, 12 h; vs untreated
# Hep3B [7] = assay: Western blot of Bcl-2 family and apoptotic proteins; assay type: cell-based; details: 15, 20, 25 μM, 24 h
# Hep3B [8] = assay: Immunofluorescence, cleaved caspase-8 and -3; assay type: cell-based; details: 15 μM, 12 h; vs untreated
# Hep3B [9] = assay: Western blot of endoplasmic reticulum chaperone proteins; assay type: cell-based; details: 20 μM, depending on time
# Hep3B [10] = assay: Immunofluorescence, caspase-12 (endoplasmic reticulum stress); assay type: cell-based; details: 15 μM, 12 h
# [11] = system: Hep3B cells transformed with GFP-LC3B plasmid; assay: Autophagosome formation in GFP-LC3B transformed cells, fluorescence microscopy; assay type: cell-based; details: 20 μM, over time (6, 12, 18, 24)
# Hep3B [12] = assay: Western blot of LC3B; assay type: cell-based; details: 15, 20, 25 μM, 12 h; vs untreated
# HUVECs = assay: Tube formation assay (angiogenesis, in vitro); assay type: cell-based, human; details: for degree of tube formation (total tube length, converted to percent): 18 h (untreated 222)
# Hep3B [13] = assay: Wound-healing assay (cell migration); assay type: cell-based
structure (smiles),measurement,setting,value
"COc1ccc(C[C@@H]2c3cc(Oc4cc(C[C@@H]5c6cc(OC)c(OC)cc6CCN5C)ccc4O)c(OC)cc3CCN2C)cc1 [neferine, 4-[[(1R)-6,7-Dimethoxy-2-methyl-3,4-dihydro-1H-isoquinolin-1-yl]methyl]-2-[[(1R)-6-methoxy-1-[(4-methoxyphenyl)methyl]-2-methyl-3,4-dihydro-1H-isoquinolin-7-yl]oxy]phenol]",cell suppression,Hep3B [1]; 10 μM or more,marked cell suppression
same,cell viability (concentration dependence),Hep3B [1]; 5-30 μM,significant decrease in cell viability depending on the neferrin treatment concentration
same,viability at 30 µM,"Hep3B [1]; Homo sapiens, read-out: cell viability",< 10%
same,viability at 30 µM,"Sk-Hep1; Homo sapiens, SK-HEP1, 24 h, read-out: survival rate of the cells",~90%
same,cytotoxicity,"Sk-Hep1; Sk-Hep1, 5-30 μM, 24 h",did not show cytotoxicity
same,"viability at 24 h, 30 µM",[2],~90%
same,cytotoxicity,THLE-3,did not show cytotoxicity
same,"nuclear membrane changes (shrinkage, blebbing)","Hep3B [3]; 6 h after treatment, vs untreated",세포들의 응축(shrinkage) 및 파열(blebbing)과 같은 핵 막 변화가 나타나는
same,nuclear condensation (apoptosome formation),Hep3B [3]; 24 h after treatment,핵 응축(apoptosome formation)이 관찰되었다
same,sub-G1 cell population,Hep3B [4]; 15 μM,4.78%
same,increase of G1/S phase compared to untreated group,"Hep3B [4]; 20 μM, 24 h",approximately 9%
same,sub-G1 cell population,Hep3B [4]; 20 μM,16.01%
same,sub-G1 cell population (concentration dependence),"Hep3B [4]; 15, 20, 25 μM, 24 h",sub-G1 cell population increases in proportion to the neferrin treatment concentration
same,CDK4 protein expression,Hep3B [5],down regulation
same,E2F-1 protein expression,Hep3B [5],down regulation
same,c-Myc protein expression,Hep3B [5],down regulation
same,cyclin D1 protein expression,Hep3B [5],down regulation
same,cyclin D3 protein expression,Hep3B [5],down regulation
same,p21 Waf1/Cip1 protein expression,Hep3B [5],expression was increased
same,phosphorylation of cdc2,Hep3B [5],dephosphorylation of cdc2
same,expression level of p21 Waf1/Cip1 protein around the nucleus in the cytoplasm,Hep3B [6],두드러지게 증대
same,Bak protein expression,Hep3B [7],significantly increased
same,Bax protein expression,Hep3B [7],slightly increased
same,Bid protein expression,Hep3B [7],slightly increased
same,Bim protein expression,Hep3B [7],slightly increased
same,Puma protein expression,Hep3B [7],significantly increased
same,caspase-3 protein expression,Hep3B [7],decrease depending on the treatment concentration
same,cleaved PARP protein expression,Hep3B [7],markedly increased
same,cleaved caspase-6 protein expression,Hep3B [7],markedly increased
same,cleaved caspase-3 expression,Hep3B [8],markedly expressed
same,cleaved caspase-8 expression,Hep3B [8],markedly expressed
same,Bip protein expression level,Hep3B [9],significantly up-regulate
same,PDI protein expression level,Hep3B [9],significantly up-regulate
same,calnexin protein expression level,Hep3B [9],significantly up-regulate
same,calpain2 protein expression level,Hep3B [9],significantly up-regulate
same,caspase-12 protein expression level,Hep3B [9],significantly up-regulate
same,expansion of the endoplasmic reticulum (caspase-12 staining),Hep3B [10],소포체의 확장을 관찰
same,number of autophagosomes in the cytoplasm (GFP-LC3B dots),[11],자가포식소체 수가 세포질 내에서 증가
same,size and number of vacuoles,[11],시간 의존적으로 더 크고 많이 증가
same,vacuole formation in the cytoplasm,[11],소체(vacuole) 형성이 발생
same,expression of LC3B around the membrane,Hep3B [12],농도 의존적으로 증가
same,"degree of tube formation (total tube length, converted to percent)",HUVECs; 10 μM,216%
same,"degree of tube formation (total tube length, converted to percent)",HUVECs; 20 μM,202%
same,"degree of tube formation (total tube length, converted to percent)",HUVECs; 30 μM,146%
same,formation of cellular vascular structures,"HUVECs; 10, 20, 30 μM, 18 h",suppression of the formation of cellular vascular structures
same,"tube length (px), concentration dependence","HUVECs; 10, 20, 30 μM, 18 h",tube length (px) is reduced depending on the neferrin concentration
same,inhibition at 15 µM,"Hep3B [13]; Homo sapiens, Hep3B, 15 μM, 72 h, vs increased migration in untreated group, read-out: reduction of cell coverage area",~20%
same,cell migration,Hep3B [13]; images at 12 h intervals,cell migration was suppressed depending on the neferrin treatment concentration
